Measured values taken from US5190741A, “Agents for diagnosing and treating melanomas, aromatic halogenated derivatives usable as such agents and their preparation” (Institut National de la Sante et de la Recherche Medicale …, priority 1989, dated 1993).

Tests used:
B16 murine melanoma = assay: Tissue distribution in C57 BL6 mice bearing B16; assay type: in vivo, mouse; conditions: for elimination kinetics: compared with derivative A; for marker of the B16 murine melanoma: mouse, in vivo
Procedure: The study of the tissue distribution of the ^125 I labelled compounds was performed in mice bearing grafted melanomas (cf. autoradiograms above). […] The animals are sacrificed at different time intervals of 1 to 24 hours after the injection. The blood is collected and the principal organs are excised. Aliquots are weighed and the radioactivity of the samples is measured in a […] 1191 counter (analytic tracer). The counting yield for iodine 125 is 60%. The results are expressed: as a percentage of the injected dose bound per g of tissue (% ID/g); in the form of the ratios [formula] This ratio reflects more precisely the selectivity of a molecule for an organ (tables 2, 4, 6, 8, 10 and 12).

melanoma in man = conditions: in vivo; cited from earlier work
melanoma = conditions: in vivo; cited from earlier work
grafted tumors = conditions: animals bearing grafted tumors; cited from earlier work

| Compound | elimination kinetics (B16 murine melanoma) | marker of the B16 murine melanoma (B16 murine melanoma) | further results |
| --- | --- | --- | --- |
| CN(C)CCNC(=O)c1ccc(I)cc1 [Derivative E] | more rapid elimination | markers of the B16 murine melanoma | possibility for use in scanning (B16 murine melanoma; between 3 h and 6 h after administration): possibilities for use in scanning between 3 h and 6 h |
| CC(C)N(CCNC(=O)c1ccc(I)cc1)C(C)C [Derivative G] |  | markers of the B16 murine melanoma |  |
| CN(C)CCCNC(=O)c1ccc(I)cc1 [Derivative J] | more rapid elimination | markers of the B16 murine melanoma |  |
| CCN(CC)CCCNC(=O)c1ccc(I)cc1 [Derivative L] | more rapid elimination | markers of the B16 murine melanoma |  |
| CC(C)NC(C)Cc1ccc([123I])cc1 (stereo not drawn) [^123 I-IMP] |  |  | detection of melanoma in man (melanoma in man): used for the detection of melanoma in man |
| O=C([O-])CC(O)(CC(=O)[O-])C(=O)[O-].[67Ga+3] [citrate of gallium 67] |  |  | elimination from the digestive tract (melanoma): very slow elimination from the digestive tract; localization in the liver and the kidney (melanoma): late and extensive localization in the liver and the kidney |
| O=c1[nH]c(=S)[nH]cc1I [iodothiouracil labelled with ^125 I, iodothiouracil] |  |  | localization and treatment of malignant melanoma (grafted tumors): promising agent for the localization and the treatment of malignant melanoma |
